Reference: ChEMBL document CHEMBL5385865, “Discovery and optimization of 2-(trifluoromethyl)benzimidazole derivatives as novel ferroptosis inducers in vitro and in vivo” (Eur J Med Chem, 2023)
Active and inactive are the calls of the source. The calls are words filed in the database; no cut-off is given here.

What was measured:
[1] = test system: HT-1080; test: Induction of ferroptosis in human HT-1080 cells assessed as cell death at 10 uM incubated for 24 hrs in presence of Fer-1 by MTT assay; format: functional, cell-based
[2] = test system: A-375; test: Lethality in human A-375 cells assessed as decrease in cell viability at 10 uM incubated for 48 hrs by MTT assay; format: functional, cell-based
[3] = test system: HepG2; test: Lethality in human HepG2 cells assessed as decrease in cell viability at 10 uM incubated for 48 hrs in presence of DFO by MTT assay; format: functional, cell-based
[4] = test system: HT-1080; test: Induction of ferroptosis in human HT-1080 cells assessed as increase in cytosolic ROS accumulation incubated for 10 hrs by H2DCFDA probe based flow cytometry; format: functional, cell-based; settings: dose 0.5-5 µM
[5] = Metabolic stability in […] rat microsomes assessed as half life at 1 uM in presence of NADPH by LC-MS analysis; format: ADME, Liver, Microsome
[6] = Toxicity in human AC16 cells upto 20 uM incubated for 48 hrs by MTT assay; format: cell-based; settings: ac16 [human hybrid]
[7] = test system: HeLa; test: Lethality in human HeLa cells assessed as decrease in cell viability at 10 uM incubated for 48 hrs by MTT assay; format: functional, cell-based
[8] = Metabolic stability in human liver microsomes assessed as intrinsic clearance measured per mg protein at 1 uM in presence of NADPH by LC-MS analysis; format: ADME, Microsome; settings: read-out: CLH
[9] = test system: HT-1080; test: Induction of ferroptosis in human HT-1080 cells assessed as increase in mitochondrial membrane density at 5 uM incubated for 24 hrs by TEM analysis; format: functional, cell-based
[10] = test system: HT-1080; test: Induction of ferroptosis in human HT-1080 cells assessed as increase in lipid ROS accumulation at 0.5 to 5 uM incubated for 10 hrs by flow cytometry; format: functional, cell-based; settings: dose 0.5-5 µM
[11] = test system: HT-1080; test: Induction of ferroptosis in human HT-1080 cells overexpressing SLC7A11 assessed as increase in lipid peroxidation by BODIPY-C11 probe based confocal laser scanning microscopy; format: functional, cell-based
[12] = test system: A-375; test: Lethality in human A-375 cells assessed as inhibition of cell viability incubated for 24 hrs by MTT assay; format: functional, cell-based; settings: A-375, 24 h
[13] = test system: HT-1080; test: Induction of ferroptosis in human HT-1080 cells assessed as cell death incubated for 24 hrs by morphology based microscopy; format: functional; settings: dose 0.5-5 µM
[14] = test system: 786-0; test: Lethality in human 786-0 cells assessed as decrease in cell viability at 10 uM incubated for 48 hrs in presence of DFO by MTT assay; format: functional, cell-based
[15] = test system: HT-1080; test: Induction of ferroptosis in human HT-1080 cells assessed as cell death at 5 uM incubated for 6 hrs in presence of ferric ammonium citrate by fluorescent microscopy; format: functional, cell-based
[16] = target: T1, Cystine/glutamate transporter (Homo sapiens) (UniProt Q9UPY5); test: Inhibition of Xc- in human HT-1080 cells assessed as decrease in glutamate release incubated for 3 hrs by Amplex red assay; format: cell-based; settings: dose 0.5-5 µM
T1 sequence (whole entry): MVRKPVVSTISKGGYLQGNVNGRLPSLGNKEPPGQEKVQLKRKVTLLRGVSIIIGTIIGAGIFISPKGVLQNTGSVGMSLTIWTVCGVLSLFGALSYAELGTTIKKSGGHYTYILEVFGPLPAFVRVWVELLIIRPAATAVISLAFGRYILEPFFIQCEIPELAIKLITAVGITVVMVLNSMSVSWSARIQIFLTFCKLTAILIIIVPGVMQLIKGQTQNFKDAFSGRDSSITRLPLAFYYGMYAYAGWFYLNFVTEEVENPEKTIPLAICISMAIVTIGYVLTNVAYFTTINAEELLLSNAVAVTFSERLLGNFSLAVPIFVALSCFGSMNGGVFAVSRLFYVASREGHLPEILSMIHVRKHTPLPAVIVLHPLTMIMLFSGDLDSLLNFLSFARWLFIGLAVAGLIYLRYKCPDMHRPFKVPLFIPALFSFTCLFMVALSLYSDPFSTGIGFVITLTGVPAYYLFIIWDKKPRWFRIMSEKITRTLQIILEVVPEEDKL

[17] = test system: HeLa; test: Lethality in human HeLa cells assessed as inhibition of cell viability incubated for 24 hrs by MTT assay; format: functional, cell-based
[18] = Toxicity in BALB/c nude mouse xenografted with human HepG2 cells assessed as histological change in liver at 15 to 30 mg/kg, ip administered every other day for 21 days by H and E staining based analysis; format: organism-based; settings: in vivo, 504 h, dose 15-30 mg/kg, time 21 day
[19] = test system: DU-145; test: Lethality in human DU-145 cells assessed as inhibition of cell viability incubated for 24 hrs by MTT assay; format: functional, cell-based; settings: DU-145, 24 h
[20] = test system: MDA-MB-231; test: Lethality in human MDA-MB-231 cells assessed as decrease in cell viability at 10 uM incubated for 48 hrs in presence of Fer-1 by MTT assay; format: functional, cell-based
[21] = Toxicity in BALB/c nude mouse xenografted with human HepG2 cells assessed as effect on serum TBIL level at 15 to 30 mg/kg, ip administered every other day for 21 days; format: organism-based; settings: in vivo, 504 h, dose 15-30 mg/kg, time 21 day
[22] = test system: HT-1080; test: Induction of ferroptosis in human HT-1080 cells assessed as decrease in GSH level incubated for 12 hrs by DTNB method; format: functional, cell-based; settings: dose 0.5-5 µM
[23] = test system: HepG2; test: Induction of apoptosis in human HepG2 cells xenografted in BALB/c nude mouse at 15 to 30 mg/kg, ip administered every other day for 21 days by TUNEL staining based IHC analysis; format: functional, organism-based; settings: dose 15-30 mg/kg, time 21.0 day
[24] = test system: 786-0; test: Lethality in human 786-0 cells assessed as inhibition of cell viability incubated for 24 hrs by MTT assay; format: functional, cell-based; settings: 786-0, 24 h
[25] = test system: MDA-MB-231; test: Lethality in human MDA-MB-231 cells assessed as decrease in cell viability at 10 uM incubated for 48 hrs in presence of DFO by MTT assay; format: functional, cell-based
[26] = test system: HepG2; test: Antitumor activity against human HepG2 cells xenografted in BALB/c nude mouse assessed as tumor growth inhibition at 30 mg/kg, ip administered every other day for 21 days by electronic caliper analysis relative to control; format: functional; settings: HepG2, 504 h, time 21 day, read-out: TGI
[27] = Toxicity in BALB/c nude mouse xenografted with human HepG2 cells assessed as histological change in spleen at 15 to 30 mg/kg, ip administered every other day for 21 days by H and E staining based analysis; format: organism-based; settings: in vivo, 504 h, dose 15-30 mg/kg, time 21 day
[28] = Toxicity in BALB/c nude mouse xenografted with human HepG2 cells assessed as body weight loss at 15 to 30 mg/kg, ip administered every other day for 21 days; format: organism-based; settings: in vivo, 504 h, dose 15-30 mg/kg, time 21 day
[29] = test system: HeLa; test: Lethality in human HeLa cells assessed as decrease in cell viability at 10 uM incubated for 48 hrs in presence of Fer-1 by MTT assay; format: functional, cell-based
[30] = test system: HT-1080; test: Induction of ferroptosis in human HT-1080 cells assessed as increase in lipid ROS accumulation at 5 uM incubated for 10 hrs by BODIPY-C11 probe based confocal laser scanning microscopy; format: functional, cell-based
[31] = test system: HepG2; test: Induction of ferroptosis in human HepG2 cells xenografted in BALB/c nude mouse assessed as increase in 4-HNE level administered intraperitoneally every other day for 21 days; format: functional; settings: dose 15-30 mg/kg, route ip, time 21.0 day
[32] = test system: HeLa; test: Lethality in human HeLa cells assessed as decrease in cell viability at 10 uM incubated for 48 hrs in presence of DFO by MTT assay; format: functional, cell-based

half-life at 1 µM [5]: 10.4 min
microsomal CLint at 1 µM [8]: 88.6 µL/min/mg
inhibition [16]: Dose-Dependent Effect
SMILES: CN(C)S(=O)(=O)c1ccc(N2CCC(Cn3c(C(F)(F)F)nc4ccccc43)CC2)cc1
Activity [1]: inactive
Activity [2]: Active
Activity [3]: inactive
Activity [4]: Dose-Dependent Effect
Activity [6]: Non-Toxic
Activity [7]: Active
Activity [9]: Active
Activity [10]: Active
Activity [11]: inactive
IC50 [12]: 2.31 µM
Activity [13]: Dose-Dependent Effect
Activity [14]: inactive
Activity [15]: Active
IC50 [17]: 1.91 µM
Activity [18]: Non-Toxic
IC50 [19]: 1.64 µM
Activity [20]: inactive
Activity [21]: Non-Toxic
Activity [22]: Dose-Dependent Effect
Activity [23]: inactive
IC50 [24]: 0.7 µM
Activity [25]: inactive
inhibition in vivo at 30 mg/kg [26]: 77.1%
Activity [27]: Non-Toxic
Activity [28]: Non-Toxic
Activity [29]: inactive
Activity [30]: Active
Activity [31]: Dose-Dependent Effect
Activity [32]: inactive
